Laboratory results reported in US9663513B2, “Pyrimidine PDE10 inhibitors” (Merck Sharp & Dohme Corp., priority 2012, dated 2017).

Biological target: human PDE10A2 (Homo sapiens (Human), UniProt Q9Y233)
Assay: PDE10 fluorescence polarization (IMAP FP) inhibition assay
Assay type: biochemical
Details: human PDE10A2 from transfected AD293 cells; FAM-labeled cAMP 50 nM; apparent inhibition constant; read-out: PDE10A Ki
Procedure: The activity of the compounds in accordance with the present invention as PDE10 inhibitors may be readily determined without undue experimentation using a fluorescence polarization (FP) methodology that is well known in the art (Huang, W., et al., J. Biomol Screen, 2002, 7: 215).
In a typical experiment the PDE10 inhibitory activity of the compounds of the present invention was determined in accordance with the following experimental method. PDE10A2 was amplified from human fetal brain cDNA (Clontech, Mountain View, Calif.) using a forward primer corresponding to nucleotides 56-77 of human PDE10A2 (Accession No. AF127480, Genbank Identifier 4894716), containing a Kozak consensus sequence, and a reverse primer corresponding to nucleotides 2406-2413 of human PDE10A2 (Accession No. AF127480, Genbank Identifier 4894716). Amplification with Easy-A polymerase (Stratagene, La Jolla, Calif.) was 95° C. for 2 minutes followed by thirty three cycles of 95° C. for 40 seconds, 55° C. for 30 seconds, and 72° C. for 2 minutes 48 seconds. Final extension was 72° C. for 7 minutes. The PCR product was TA cloned into pcDNA3.2-TOPO (Invitrogen, Carlsbad, Calif.) according to standard protocol. AD293 cells with 70-80% confluency were transiently transfected with human PDE10A2/pcDNA3.2-TOPO using Lipofectamine 2000 according to manufacturer specifications (Invitrogen, Carlsbad, Calif.). Cells were harvested 48 hours post-transfection and lysed by sonication (setting 3, 10×5 sec pulses) in a buffer containing 20 mM HEPES, 1 mM EDTA and protease inhibitor cocktail (Roche). Lysate was collected by centrifugation at 75,000×g for 20 minutes. Supernatant containing the cytoplasmic fraction was used for evaluation of PDE10A2 activity. The fluorescence polarization assay for cyclic nucleotide phosphodiesterases was performed using an IMAP® FP kit supplied by Molecular Devices, Sunnyvale, Calif. (product # R8139). IMAP® technology has been applied previously to phosphodiesterase assays (Huang, W., et al., J. Biomol Screen, 2002, 7: 215). Assays were performed at room temperature in 384-well microtiter plates with an incubation volume of 20.2 μL. Solutions of test compounds were prepared in DMSO and serially diluted with DMSO to yield 8 μL of each of 10 solutions differing by 3-fold in concentration, at 32 serial dilutions per plate. […] 0% of inhibition is determined by using DMSO (1% final concentrations).
A Labcyte Echo 555 (Labcyte, Sunnyvale, Calif.) is used to dispense 200 nL from each well of the titration plate to the 384 well assay plate. A solution of enzyme (1/1600 dilution from aliquots; sufficient to produce 20% substrate conversion) and a separate solution of FAM-labeled cAMP PDE from Molecular Devices (product # R7506), at a final concentration of 50 nM are made in the assay buffer (10 mM Tris HCl, pH 7.2, 10 mM MgCl2, 0.05% NaN3 0.01% Tween-20, and 1 mM DTT). The enzyme and the substrate are then added to the assay plates in two consecutive additions of 10 μL, and then shaken to mix. The reaction is allowed to proceed at room temperature for 30 minutes. […] The enzymatic reaction is stopped by addition of 60 μL of the binding solution to each well of the assay plates and the plates are sealed and shaken for 10 seconds. The plate was incubated at room temperature for at least one hour prior to determining the fluorescence polarization (FP). The parallel and perpendicular fluorescence of each well of the plate was measured using a Perkin Elmer EnVision™ plate reader (Waltham, Mass.).
Fluorescence polarization (mP) was calculated from the parallel (S) and perpendicular (P) fluorescence of each sample well and the analogous values for the median control well, containing only substrate (So and Po), using the following equation: Polarization(mP)=1000*(S/So−P/Po)/(S/So+P/Po).
Dose-inhibition profiles for each compound were characterized by fitting the mP data to a four-parameter equation given below.

human PDE10A2, sequence (Q9Y233 267-1055): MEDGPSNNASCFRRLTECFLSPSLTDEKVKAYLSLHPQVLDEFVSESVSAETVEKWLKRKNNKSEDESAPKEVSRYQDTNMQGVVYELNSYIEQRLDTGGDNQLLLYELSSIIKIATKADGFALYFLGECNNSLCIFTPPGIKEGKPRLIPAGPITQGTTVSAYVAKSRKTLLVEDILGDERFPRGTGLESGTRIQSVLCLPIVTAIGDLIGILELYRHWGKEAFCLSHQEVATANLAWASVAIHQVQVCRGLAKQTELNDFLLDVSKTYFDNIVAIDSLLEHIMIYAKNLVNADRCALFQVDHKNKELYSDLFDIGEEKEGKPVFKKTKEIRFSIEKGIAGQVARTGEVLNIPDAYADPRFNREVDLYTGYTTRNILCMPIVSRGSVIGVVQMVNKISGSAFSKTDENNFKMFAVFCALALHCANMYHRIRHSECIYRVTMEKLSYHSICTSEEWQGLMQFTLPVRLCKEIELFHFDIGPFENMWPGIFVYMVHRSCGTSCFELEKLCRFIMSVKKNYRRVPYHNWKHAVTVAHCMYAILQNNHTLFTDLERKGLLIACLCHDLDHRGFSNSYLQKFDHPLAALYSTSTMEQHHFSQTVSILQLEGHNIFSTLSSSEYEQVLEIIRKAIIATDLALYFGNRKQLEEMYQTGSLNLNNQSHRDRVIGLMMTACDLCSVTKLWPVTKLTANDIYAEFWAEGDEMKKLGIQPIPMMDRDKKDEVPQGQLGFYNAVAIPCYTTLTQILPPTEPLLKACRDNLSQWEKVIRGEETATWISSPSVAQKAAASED

Ki [nM] | Structure (SMILES)
1.11 | Cc1ccc([C@H]2C[C@@H]2COc2nc(C)ncc2-c2cccc(OC(F)(F)F)c2)nc1 [Example 12, 2-methyl-4-(((1S,2S)-2-(5-methylpyridin-2-yl)cyclopropyl)methoxy)-5-(3-(trifluoromethoxy)phenyl)pyrimidine]
1.73 | CCc1ccc([C@@H]2C[C@@H]2COc2nc(C)ncc2[C@H]2CC[C@@H](O)CC2)nc1 [Example 197, (1R,4s)-4-(4-(((1S,2R)-2-(5-ethylpyridin-2-yl)cyclopropyl)methoxy)-2-methylpyrimidin-5-yl)cyclohexanol]
1.78 | Cc1ncc(-c2cnc3[nH]ncc3c2)c(OC[C@H]2C[C@@H]2c2ccc3ccccc3n2)n1 (single isomer, unassigned) [Example 152]
29.9 | COc1ccc([C@H]2C[C@@H]2COc2nc(C)ncc2-c2cc(OC)nn2C)nc1 [Example 240, 5-(3-methoxy-1-methyl-1H-pyrazol-5-yl)-4-(((1S,2S)-2-(5-methoxypyridin-2-yl)cyclopropyl)methoxy)-2-methylpyrimidine]
15.7 | COc1ccc([C@H]2C[C@@H]2COc2nc(C)ncc2-c2nn[nH]c2CO)nc1 [Example 249, (4-(4-(((1S,2S)-2-(5-methoxypyridin-2-yl)cyclopropyl)methoxy)-2-methylpyrimidin-5-yl)-1H-1,2,3-triazol-5-yl)methanol]
0.55 | Cc1ccc([C@H]2C[C@@H]2COc2nc(C)ncc2-c2ccnc(F)c2)nc1 [Example 19, 5-(2-fluoropyridin-4-yl)-2-methyl-4-(((1S,2S)-2-(5-methylpyridin-2-yl)cyclopropyl)methoxy)pyrimidine]
1.64 | COc1ccc([C@H]2C[C@@H]2COc2nc(C)ncc2-c2cnc(O)nc2)nc1 [Example 70, 4′-(((1S,2S)-2-(5-methoxypyridin-2-yl)cyclopropyl)methoxy)-2′-methyl-5,5′-bipyrimidin-2-ol]
14 | CCOC(=O)c1[nH]nnc1-c1cnc(C)nc1OC[C@H]1C[C@@H]1c1ccc(OC)cn1 [Example 248, ethyl 4-(4-(((1S,2S)-2-(5-methoxypyridin-2-yl)cyclopropyl)methoxy)-2-methylpyrimidin-5-yl)-1H-1,2,3-triazole-5-carboxylate]
1.09 | Cc1ncc(-c2ccc(C(C)(C)O)nc2)c(OC[C@H]2C[C@@H]2c2ccccn2)n1 [Example 123, 2-(5-(2-methyl-4-(((1S,2S)-2-(pyridin-2-yl)cyclopropyl)methoxy)pyrimidin-5-yl)pyridin-2-yl)propan-2-ol]
0.71 | COc1ccc([C@H]2C[C@@H]2COc2nc(C)ncc2-c2cn(C)[nH]c2=O)nc1 [Example 244, 4-(4-(((1S,2S)-2-(5-methoxypyridin-2-yl)cyclopropyl)methoxy)-2-methylpyrimidin-5-yl)-1-methyl-1,2-dihydropyrazol-3-one]
0.04 | COc1cc(-c2cnc(C)nc2OC[C@H]2C[C@@H]2c2ccc3ccccc3n2)cc2nccn12 [Example 131, 2-((1S,2S)-2-((5-(5-methoxyimidazo[1,2-a]pyridin-7-yl)-2-methylpyrimidin-4-yloxy)methyl)cyclopropyl)quinoline]
8.35 | COc1ccc([C@H]2C[C@@H]2COc2nc(C)ncc2C2CCC(=O)C2)nc1 (stereo partly drawn) [Example 78]
0.02 | Cc1ncc(-c2ccc(C(C)(C)O)nc2)c(OC[C@H]2C[C@@H]2c2ccc3ccccc3n2)n1 [Example 157, 2-(5-(2-methyl-4-(((1S,2S)-2-(quinolin-2-yl)cyclopropyl)methoxy)pyrimidin-5-yl)pyridin-2-yl)propan-2-ol]
1.96 | Cc1ccc([C@H]2C[C@@H]2COc2nc(C)ncc2C2=CCOCC2)nc1 [Example 51, 5-(3,6-dihydro-2H-pyran-4-yl)-2-methyl-4-(((1S,2S)-2-(5-methylpyridin-2-yl)cyclopropyl)methoxy)pyrimidine]

Structure (SMILES) | Ki [nM]
Cc1ccc([C@H]2C[C@@H]2COc2nc(C)ncc2-c2ccc(C(O)C(F)(F)F)nc2)nc1 (stereo partly drawn) [Example 146] | 0.25
